Our source for the GI50 and TGI values is PubChem BioAssay (NCI).

Holding throughout (assay): growth of human tumour cells (NCI), 48 h
The test system of experiment [1] is A498 renal.
Experiment [2] relates to A549 NSCLC.
Experiment [3] concerns DU-145 prostate.
Experiment [4] has as its system HOP-62 NSCLC.
Experiment [5] concerns NCI/ADR-RES ovarian.
Experiment [6] deals with OVCAR-4 ovarian.
The subject of experiment [7] is SK-OV-3 ovarian.
Experiment [8] relates to SR leukemia.
Experiment [9] has as its system UACC-257 melanoma.
Experiment [10] concerns UACC-62 melanoma.

SMILES strings stand for the structures. Where “and” joins values, the source holds several entries; their conditions need not be identical. Equal entries are not always repeated.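 Dose response: 5 concentrations. Exposure: 48 h. Format: 96-well plates. Endpoint: linear interpolation; highest concentration if not reached. GI50 marks 50% less growth. TGI is the concentration that stops growth completely.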

For `COc1ccc(C(=O)COC(=O)[C@H](C[Se][Se]C[C@H](NC(=O)c2ccc(Br)cc2F)C(=O)OCC(=O)c2ccc(OC)cc2)NC(=O)c2ccc(Br)cc2F)cc1`, the GI50 is 0.896 µM in [1]; 0.421 µM in experiment [2]; 0.843 µM in [3]; 0.415 µM in experiment [4]; 0.399 µM in [5]; 1.64 µM in [6]. Further, the GI50 in experiment [7] is 0.441 µM; in experiment [8], 0.478 µM; in [9], 2.25 µM; in experiment [10], 1.06 µM. In addition, the TGI in experiment [1] was 8.84 µM; in experiment [2] it was 3.79 µM; in [3] it was 2.68 µM; in experiment [4], 1.83 µM; in experiment [5] it was 1.39 µM; in experiment [6], 3.1 µM. The TGI in experiment [7] was found to be 1.64 µM; in experiment [8], 4.82 µM; in experiment [9], 5.31 µM; in experiment [10], 2.86 µM.

For the compound `CC1=CC(=C(c2ccc(N)cc2)c2ccc(N)cc2)C=CC1=N`, the GI50 is 2.2 µM in experiment [1]; 2.68 µM in [2]; 2.07 µM and 3.92 µM in experiment [3]; 0.486 µM in experiment [4]; 9.31 µM and 25.7 µM in [5]; 2.51 µM and 5.01 µM in experiment [6]. In addition, the GI50 was 2.44 µM and 4 µM in [7]; 2.4 µM and 3.1 µM in experiment [9]; 1.3 µM and 3.09 µM in experiment [10]. The TGI is > 27.4 µM and > 100 µM and 32.2 µM in experiment [1]; 20.1 µM and 50.6 µM and 15.9 µM in [2]; 15.2 µM and > 40.3 µM and 14.2 µM in [3]; 1.98 µM and 7.16 µM in [4]; 46.6 µM and 61.9 µM and > 100 µM in experiment [5]; 14.3 µM and > 55.2 µM and 71.6 µM in experiment [6]. The TGI in experiment [7] is 8.04 µM and 25.2 µM and 17.2 µM; in [8], more than 58.8 µM; in experiment [9], 14.4 µM and 19 µM and 10.7 µM; in experiment [10] it was 5.53 µM and 18.3 µM and 16.1 µM.

Turning to `C/C(=C\CCc1ccoc1)CC/C=C(\C)CCCN1CCOCC1`, the GI50 is 4.48 µM in experiment [1]; 9.08 µM in [2]; 10.3 µM in experiment [3]; 12.2 µM in [4]; 12.3 µM in experiment [5]; 3.21 µM in experiment [6]. In addition, the GI50 was 7.06 µM in [7], 3.12 µM in experiment [8], 9.17 µM in [9] and 5.02 µM in experiment [10]. The TGI came out at 19.7 µM in experiment [1]; 23.2 µM in experiment [2]; 22.3 µM in experiment [3]; 25.6 µM in experiment [4]; 27.5 µM in experiment [5]; 14.3 µM in experiment [6]. In addition, the TGI in experiment [7] came to 19.7 µM; in experiment [8], 9.69 µM; in experiment [9], 21.2 µM; in experiment [10], 18.2 µM.

As for `CC1(C)CCC2=C(O1)c1ccccc1C(=O)C2=O`, the TGI in experiment [1] was 11.3 µM; in [2], 5.14 µM and 1.73 µM; in experiment [3], 3.08 µM and 1.4 µM; in [4], 4.14 µM and 1.48 µM; in experiment [5], 2.69 µM and 1.8 µM; in [6], 2.53 µM and 5.78 µM. The TGI in [7] was 3.94 µM; in experiment [8], more than 100 µM; in experiment [9] it was 3.05 µM and 0.429 µM; in [10], 3.3 µM and 0.957 µM. Also, the GI50 in experiment [2] is 2.15 µM; in experiment [3] it was 1.71 µM; in experiment [4] it was 1.82 µM; in experiment [5], 0.445 µM and 0.481 µM; in [6], 1.27 µM; in [8], 3.99 µM. Also, the GI50 in experiment [9] is 1.56 µM; in experiment [10], 1.79 µM.

On to `COc1cc2nc(SCC(=O)Nc3cc(OC)c(OC)c(OC)c3)n(Cc3ccccc3)c(=O)c2cc1OC`, for which the GI50 was 1.75 µM in experiment [1]; 5.13 µM in [2]; 7.44 µM in experiment [3]; 2.03 µM in experiment [4]; 3.3 µM in [5]; 2.11 µM in experiment [6]. The GI50 in experiment [7] was 2.91 µM; in [8] it was 40.9 µM; in experiment [9], 3.55 µM; in [10] it was 2.35 µM. The TGI in [1] was 32.5 µM; in experiment [2], more than 100 µM; in experiment [3], more than 100 µM; in experiment [4], 4.28 µM; in [5], 11.6 µM; in experiment [6] it was 5.56 µM. The TGI in [7] is 7.26 µM; in experiment [8], more than 100 µM; in experiment [9], more than 100 µM; in [10] it was 6.82 µM.

Consider `CS(=O)(=O)Nc1ccc(-c2cc(-c3ccccc3)cc(C(N)=O)c2N)cc1`, for which the GI50 in experiment [1] was more than 20.5 µM; in experiment [2], 20.2 µM; in experiment [3] it was more than 25 µM; in experiment [4], more than 25 µM; in experiment [5], more than 25 µM; in experiment [6], more than 21.6 µM. Further, the GI50 in experiment [7] is more than 25 µM; in [8], 16.5 µM; in experiment [9], more than 25 µM; in [10], more than 25 µM. The TGI in [1], in experiment [2], in [3], in experiment [4], in experiment [5] and in experiment [6] was more than 25 µM in each case. In addition, the TGI in experiment [7], in [8], in experiment [9] and in [10] was more than 25 µM in each case.

In the case of `COc1ccc2c(c1)[nH]c(=O)c1c3cc(OC)ccc3cn21`, the GI50 in experiment [1] is less than 0.0104 µM; in experiment [2], 0.0265 µM; in experiment [3], less than 0.019 µM; in experiment [4] it was 0.179 µM; in experiment [5], less than 0.01 µM; in experiment [6] it was 0.05 µM. Also, the GI50 in experiment [7] was 0.0522 µM; in experiment [8], less than 0.0106 µM; in experiment [9] it was 14.6 µM; in experiment [10], less than 0.01 µM. For the same compound, the TGI in experiment [1] came to 1.35 µM; in [2], 1.28 µM; in experiment [3], 0.256 µM; in experiment [4], 2.05 µM; in experiment [5], 0.02 µM; in experiment [6], 1.82 µM. The TGI in [7] is 4.2 µM; in [8], 0.062 µM; in experiment [9] it was 29.1 µM; in experiment [10], 1.4 µM.
